The nature of data set [1]: Partition coefficient in two-phase solvent system. The data set is classed as physicochemical. Particulars: hexane/ethyl acetate/methanol/water 5/5/5/2. The protocol: The partition coefficient of kazinol C was measured in the following manner First, 1 mg of the extract of Example 3 was placed in a 10-ml test tube, and 2 ml of each of the upper layer solution and lower layer solution of a two-phase solution system, which reached equilibrium, was added thereto, and the mixture was shaken intensively for 1 minute. After the two phases have reached equilibrium, 100 μl of each of the upper layer solution and the lower layer solution was taken, dried, dissolved in 1 ml of ethanol, and analyzed by HPLC. The value obtained by dividing the amount of kazinol C in the upper layer solution by the amount of kazinol C in the lower layer solution was determined as partition coefficient.

Data set [2] has as its target T1, tyrosinase (Homo sapiens, UniProt P14679).
T1 sequence (P14679 19-529): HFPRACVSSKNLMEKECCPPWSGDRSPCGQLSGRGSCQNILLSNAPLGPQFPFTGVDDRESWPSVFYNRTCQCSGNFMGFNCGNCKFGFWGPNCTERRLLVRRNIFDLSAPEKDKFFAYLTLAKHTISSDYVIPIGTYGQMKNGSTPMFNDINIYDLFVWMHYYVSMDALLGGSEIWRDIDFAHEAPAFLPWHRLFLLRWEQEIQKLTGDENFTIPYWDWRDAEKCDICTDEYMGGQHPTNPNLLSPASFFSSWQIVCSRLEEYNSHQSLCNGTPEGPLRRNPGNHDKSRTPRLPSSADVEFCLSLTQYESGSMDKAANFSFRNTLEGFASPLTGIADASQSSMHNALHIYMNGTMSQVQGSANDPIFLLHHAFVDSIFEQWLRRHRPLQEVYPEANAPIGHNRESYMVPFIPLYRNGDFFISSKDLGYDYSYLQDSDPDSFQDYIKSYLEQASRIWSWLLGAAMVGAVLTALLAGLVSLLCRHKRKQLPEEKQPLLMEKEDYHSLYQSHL
Particulars: compared to kojic acid; known; cited from earlier work.

The next data set concerns mushroom tyrosinase. Put plainly: Inhibition of tyrosinase activity (L-tyrosine substrate). The data set is classed as biochemical. On the procedure:
First, as test samples, arbutin and the composition of Preparation Example 6 were prepared at various concentrations, and an enzyme was added thereto in an amount corresponding to 10 units, after which 0.1M phosphate buffer was added thereto to a final volume of 100 μl. 100 μl of 0.03% L-tyrosine substrate solution was added thereto, and then immediately, the absorbance at 475 nm was measured. Then, the mixture was allowed to react at 37° C. for 10 minutes, after which it was placed on ice to stop the reaction, and the absorbance was measured again.

Data set [3] deals with B16 melanoma cells. Put plainly: Inhibition of melanin production (α-MSH stimulated). The data set is classed as cell-based, mouse. Particulars: 100 μg/ml, 1 μM α-MSH. On the procedure: (§1) B16 melanoma cells from C57BL/6J (black, a/a) mouse melanoma were purchased from the Cell Line Bank. The cells were cultured in DMEM medium containing 10% fetal bovine serum (LONZA), 50 U/ml of penicillin and 50 μg/ml of […] streptomycin under the conditions of 37° C. and 10% CO2.
B16 melanoma cells were seeded in a 24-well plate at a density of 4×10^4 cells/well and cultured overnight so as to adhere well to the plate. Then, medium containing 1 μM α-MSH for promoting melanin production and each concentration of the test sample of Preparation Example 6 or arbutin was added to each well. The plate was incubated for 72 hours, and then 200 μl of the cell culture medium was taken and the absorbance at 405 nm was measured. Based on the measurement, the amount of melanin was calculated. The calculated amount of melanin was expressed as a percentage relative to the control (not treated with the test material), and the results are shown in Table 9 below.

Data set [4] deals with B16 melanoma cells. Put plainly: Cytotoxicity measurement (MTT assay). The data set is classed as cell-based, mouse. On the procedure:
as §1
B16 melanoma cells were seeded in a 96-well plate at a density of 1×10^4 cells/well and cultured for 1 day. The medium was replaced with fresh medium containing each of arbutin and various concentration of the composition of Preparation Example 6, and the cells were cultured again for 24 hours. 50 μl of an MIT solution obtained by dissolving MIT in cell culture medium at a concentration of 2 mg/ml was added to each well, and medium was added to each well to a final volume of 200 μl, after which the cells were incubated for 3-4 hours. The medium was removed, and the produced formazan crystals were dissolved in 150 μl of DMSO, after which the absorbance of the formazan solution was measured at 540 nm. The measured absorbance was expressed as a percentage relative to the control (not treated with the test material) to evaluate whether the test sample has cytotoxicity.

Data set [5] has as its system tyrosinase. The data set is described as follows: Tyrosinase inhibitory effect (method of Test Example 1-2). The data set is classed as biochemical. Particulars: 50 mg sample in 100 ml ethanol, diluted 10-fold; 50 μl sample solution; 37° C., 10 minutes; absorbance 490 nm. The protocol:
50 mg of a sample to be evaluated for tyrosinase inhibitory activity was dissolved in ethanol to make 100 ml of a solution. 10 ml of the solution was taken, and ethanol was added thereto to make 100 ml of a sample solution. 500 μl of a substrate solution, 450 μl of purified water and 50 μl of the sample solution are added to and mixed with 500 μl of buffer, and 50 μl of an enzyme (tyrosinase) solution is added to the mixture. The resulting mixture is allowed to react at 37° C. for 10 minutes, and then immediately allowed to stand on ice for 5 minutes, and the absorbance at 490 nm is measured. The tyrosinase inhibitory effect of the sample is evaluated based on the absorbance of the sample compared to the absorbance of a blank sample.

The structures appear in SMILES notation. In brackets after ≈: the same amount, converted by molar mass.

As to `C=CC(C)(C)c1cc(CCCc2cc(O)c(O)c(CC=C(C)C)c2CC=C(C)C)c(O)cc1O` [kazinol C], in data set [1], the “Partition coefficient (upper layer / lower layer)” value stood at 0.997. Further, the “Tyrosinase inhibitory effect (in words)” value on tyrosinase [2] is “excellent tyrosinase inhibitory effect compared to kojic acid”.

As usually defined, the inhibition is the change of the read-out against control, counted positive when it falls. A higher inhibition goes with a response far below the control. Regarding `OC[C@H]1O[C@@H](Oc2ccc(O)cc2)[C@H](O)[C@@H](O)[C@@H]1O` [Arbutin, arbutin], the “Inhibition (%) of tyrosinase activity” value in the data set with mushroom tyrosinase (125 μg/ml) is 38.1%; with mushroom tyrosinase (250 μg/ml) it was 56.5%; in the data set with mushroom tyrosinase (500 μg/ml), 87.7%. Besides, the “IC50 (μg/ml), tyrosinase activity” value against mushroom tyrosinase (mushroom tyrosinase 10 units, 37° C., 10 minutes) turned out to be 209.6 µg/mL (≈ 770 µM). Further, in the data set on B16 melanoma cells [3] (72 hours), the “Inhibition (%) of melanin production” value is given as 33.7%. For the same compound, the “Melanin % relative to control” value in the data set on B16 melanoma cells [3] (72 hours) was 66.3 ± 4.7%. The compound further gave an inhibition at 100 µg/mL with B16 melanoma cells [3] (Mus musculus, B16, 72 h) of 21.2%. Further, the “% relative to control (MTT absorbance)” value with B16 melanoma cells [4] (100 μg/ml, 24 hours) turned out to be 95.1 ± 4.8%. For the same compound, the “Toxicity (%)” value in the data set on B16 melanoma cells [4] (100 μg/ml, 24 hours) is 4.9%. For the same compound, in the data set on B16 melanoma cells [4] (at a concentration of 100 μg/ml), the “Cytotoxicity (in words)” value was “no cytotoxicity”.

In the case of `O=c1cc(CO)occ1O` [Control, kojic acid], the “Tyrosinase inhibitory effect (%)” value with tyrosinase [5] is recorded as 80%.

The values are drawn from patent US8722027B2, “Method for preparing broussonetia kazinoki extract” (Amorepacific Corporation, priority 2010, dated 2014).
